How the values were obtained:
[1] = system: mouse lung fibroblast (L929 cell line); assay: Cell viability test (ISO10993-5, MTT assay); format: cell-based; settings: for cell viability: L929, 24 hours, 37° C.
Text: The 1st example is used as the experimental group to perform the cell viability test. Specifically, according to ISO10993-5 standard method, the mouse lung fibroblast (L929 cell line) is used as the test cell, and the composition of the test culture medium is 90% MEM culture medium, 10% fetal bovine serum (FBS) and additional 1% antibiotic (penicillin-streptomycin). Then, the ethanol with the final concentration of 0.1% is used as the solvent to dissolve the tested plasticizer in the test culture medium. The control group of the cell viability test is the test culture solution only added the ethanol with the final concentration of 0.1%. In the experimental group, the plasticizer of the 1st example with the concentration of 0.1 mM or 0.3 mM is added to the test culture solution, respectively, and the concentration of the ethanol in the test culture solution of the control group and the experimental group are the same, the test condition is the 37° C. environment containing 5% carbon dioxide placed for 24 hours. After the test finished, each group is tested with MTT assay, the detection wavelength is the optical density at 570 nm (OD570) and the optical density at 650 nm (OD650), and the cell viability is calculated accordingly. The formula for calculating the cell viability is: (the average value of OD570 and OD650 in the experimental group)/(the average value of three repetitions of (the average value of OD570 and OD650 in the control group))×100%. The cell viability is used to determine whether the group has the cytotoxicity, and when the cell viability is more than 70%, it is considered that this group is non-cytotoxic.

[2] = Pyrolysis temperature of the plasticizer; format: physicochemical
Protocol: According to the plasticizer of the present disclosure, when a pyrolysis temperature of the plasticizer is Pt, the following condition can be satisfied: 100° C.≤Pt. Therefore, it is favorable for stabilizing the structure of the plasticizer at the high temperature by the high pyrolysis temperature of the plasticizer. Furthermore, the following condition can be satisfied: 120° C.≤Pt. Furthermore, the following condition can be satisfied: 150° C.≤Pt. Furthermore, the following condition can be satisfied: 170° C.≤Pt. Furthermore, the following condition can be satisfied: 180° C.≤Pt.

- Pt (º C.) [2]: 200 º C.
Structure (SMILES): CCC(CC)COC(=O)CC(N)C(=O)OCC(CC)CC (stereo not shown) [1st example, 1,4-bis(2-ethylbutyl) 2-aminobutanedioate]
- toxic to the cells ([1]; 0.3 mM): will not be toxic to the cells
- cell viability ([1]; plasticizer 0.1 mM): 99.10%
- cell viability ([1]; plasticizer 0.3 mM): 81.90%

— US20240218156A1, “PLASTICIZER, PLASTIC COMPOSITION, AND PLASTIC PRODUCT” (LARGAN MEDICAL CO., LTD., priority 2022, published 2024)
